In patent US20210392890A1, “COMPOSITIONS COMPRISING PYRIDINE CARBOXYLATE HERBICIDES AND PLANT GROWTH REGULATORS” (Corteva Agriscience LLC, priority 2018, published 2021):
Several values for one entry are separate records, joined by “and”; a condition that tells them apart may be missing. Identical values can stand only once.

How the values were obtained:
Type in all cases: in vivo
[1] = test system: Viola tricolor (wild pansy); assay: Greenhouse postemergence herbicidal effect on VIOTR
Text: (§1) Seeds of the desired test plant species were planted in a 90:10% v/v (volume/volume) mixture of PRO-MIX® BX (Premier Tech Horticulture, Quakertown, Pa., USA) and PROFILE® GREENS GRADE™ (Profile Products LLC, Buffalo Grove, Ill., USA) planting mixture, which typically has a pH of 5.2 to 6.2 and an organic matter content of at least 50 percent, in plastic pots with a surface area of 103.2 square centimeters (cm^2). In some aspects, to help ensure good germination and healthy plants, a fungicide treatment and/or other chemical or physical treatment was applied. The plants were grown for 7-36 days (d) in a greenhouse with an approximate 14-hour (h) photoperiod which was maintained at about 23° C. during the day and 22° C. during the night. Nutrients and water were added on a regular basis and supplemental lighting was provided with overhead metal halide 1000-Watt lamps as necessary. The plants were employed for testing when they reached the second or third true leaf stage.
(§2) Emulsifiable concentrates of each of each pyridine carboxylate herbicide (Compound A or Compound B) were prepared at 100 grams acid equivalent per liter (g ae/L). The emulsifiable concentrates also included a safener, cloquintocet-mexyl, at 120 grams active ingredient per liter (g ai/L). An aliquot of each emulsifiable concentrate was placed in a 25 mL glass vial and diluted with an aqueous mixture of 1.25% (v/v) ACTIROB® B esterified rapeseed oil (Bayer Crop Science, Research Triangle Park, N.C., USA) or MSO® Concentrate with LECI-TECH® methylated soybean oil (Loveland Products, Loveland, Colo., USA) to obtain concentrated stock solutions at the highest application rate for each herbicide, based upon a 12 milliliter (mL) application volume at a rate of 187 liters per hectare (L/ha). The concentrated stock solutions were further diluted with an aqueous mixture of 1.25% v/v ACTIROB® B or MSO® Concentrate with LECI-TECH® to obtain stock solutions at reduced application rates for each herbicide. Spray solutions of the herbicide combinations (Compound A or Compound B plus the PGR) were prepared by adding weighed amounts or aliquots of the PGR to the stock solutions of Compound A or Compound B to form 12-mL spray solutions in two-way combinations.
(§3) The spray solutions were applied to the plant material with an overhead Mandel track sprayer equipped with 8002E nozzles calibrated to deliver 187 L/ha over an application area of 0.503 square meters (m^2) at a spray height of 18 inches (43 centimeters (cm)) above the average plant canopy. Control plants were sprayed in the same manner with the solvent blank. All pyridine carboxylate herbicide (component a) application rates are given as “g ae/ha” and all PGR (component b) application rates are given as “g ai/ha.”
(§4) The treated plants and control plants were placed in a greenhouse as described above and watered by sub-irrigation to prevent wash-off of the test compounds. After 20-22 d, the condition of the test plants as compared with that of the control plants was determined visually and scored on a scale of 0 to 100 percent where 0 corresponds to no injury and 100 corresponds to complete kill.

[2] = test system: Polygonum convolvulus (wild buckwheat); assay: Greenhouse postemergence herbicidal effect on POLCO
Text: as §1, §2, §3, §4

[3] = test system: Cirsium arvense (Canada thistle); assay: Greenhouse postemergence herbicidal effect on CIRAR
Text: as §1, §2, §3, §4

Glycine max (soybean) = assay: Greenhouse postemergence herbicidal effect on GLXMA
Text: as §1, §2, §3, §4

[4] = test system: Ipomoea hederacea (ivyleaf morningglory); assay: Greenhouse postemergence herbicidal effect on IPOHE
Text: as §1
(§5) Emulsifiable concentrates of each of each pyridine carboxylate herbicide (Compound A or Compound B) were prepared at 100 grams acid equivalent per liter (g ae/L). The emulsifiable concentrates also included a safener, cloquintocet-mexyl, at 120 grams active ingredient per liter (g ai/L). […]
as §4

[5] = test system: Amaranthus retroflexus (pigweed); assay: Greenhouse postemergence herbicidal effect on AMARE
Text: as §1, §2, §3, §4

[6] = test system: Helianthus annuus (common sunflower); assay: Greenhouse postemergence herbicidal effect on HELAN
Text: as §1, §2, §3, §4

Kochia scoparia (kochia) = assay: Greenhouse postemergence herbicidal effect on KCHSC
Text: as §1, §2, §3, §4

[7] = test system: Stellaria media (chickweed); assay: Greenhouse postemergence herbicidal effect on STEME
Text: as §1, §2, §3, §4

[8] = test system: Brassica napus (spring rape); assay: Greenhouse postemergence herbicidal effect on BRSNN
Text: as §1, §2, §3, §4

[9] = test system: Setaria faberi (giant foxtail); assay: Greenhouse postemergence herbicidal effect on SETFA
Text: as §1, §2, §3, §4

[10] = test system: Chenopodium album L. (common lambsquarters); assay: Greenhouse postemergence herbicidal effect on CHEAL
Text: as §1, §2, §3, §4

[11] = test system: Abutilon theophrasti (velvetleaf); assay: Greenhouse postemergence herbicidal effect on ABUTH
Text: as §1, §2, §3, §4

[12] = test system: Euphorbia heterophylla (poinsettia); assay: Greenhouse postemergence herbicidal effect on EPHHL
Text: as §1, §2, §3, §4

[13] = test system: Sorghum vulgare (grain sorghum); conditions: Compound A 0 g/ha, Ethephon 140 g/ha
Text: as §1, §2, §3, §4

Zea mays (maize) = conditions: Compound A 0 g/ha, Ethephon 140 g/ha
Text: as §1, §2, §3, §4

[14] = test system: Cyperus esculentus (yellow nutsedge); assay: Greenhouse postemergence herbicidal effect on CYPES; conditions: Compound A 0 g/ha, Ethephon 140 g/ha
Text: as §1, §5
as §4, with “kill. […]” for “kill.”

[15] = test system: Digitaria sanguinalis (large crabgrass); assay: Greenhouse postemergence herbicidal effect on DIGSA; conditions: Compound A 0 g/ha, Ethephon 140 g/ha
Text: as §1, §5
as §4, with “kill. […]” for “kill.”

[16] = test system: Echinochloa crus-galli (barnyard grass); assay: Greenhouse postemergence herbicidal effect on ECHCG; conditions: Compound A 0 g/ha, Ethephon 140 g/ha
Text: as §1, §5
as §4, with “kill. […]” for “kill.”

[17] = test system: Rumex obtusifolia (broadleaf dock); assay: Greenhouse postemergence herbicidal effect on RUMOB; conditions: Compound A 0 g/ha, Ethephon 140 g/ha
Text: as §1, §5
as §4, with “kill. […]” for “kill.”

rice (ORYSA) = conditions: Compound A 0 g/ha, Ethephon 140 g/ha
Text: as §1, §5
as §4, with “kill. […]” for “kill.”

[18] = Compound A 0 g/ha, Ethephon 140 g/ha

C[N+](C)(C)CCCl.[Cl-] [Chlormequat, Chlormequat chloride, reference compound]
% visual injury Obs ([1]; PGR 560 g ai/ha alone): 0% and 3% | % visual injury Obs ([2]; PGR 560 g ai/ha alone): 0% and 5% | % visual injury Obs ([3]; PGR 560 g ai/ha alone): 0% | % visual injury Obs (Glycine max (soybean); PGR 560 g ai/ha alone): 10% | % visual injury Obs ([4]; PGR 560 g ai/ha alone): 0% | % visual injury Obs ([5]; PGR 560 g ai/ha alone): 0% | % visual injury Obs ([6]; PGR 560 g ai/ha alone): 0% | % visual injury Obs (Kochia scoparia (kochia); PGR 560 g ai/ha alone): 0% | % visual injury Obs ([7]; PGR 560 g ai/ha alone): 0% | % visual injury Obs ([8]; PGR 560 g ai/ha alone): 0% | % visual injury Obs ([9]; PGR 560 g ai/ha alone): 0% | % visual injury Obs ([10]; PGR 560 g ai/ha alone): 0%

C#CCOC(=O)c1nc(-c2ccc3cc[nH]c3c2F)c(F)c(N)c1Cl [Compound B, propargyl 4-amino-3-chloro-5-fluoro-6-(7-fluoro-1H-indol-6-yl)pyridine-2-carboxylate]
% visual injury Obs ([1]; herbicide 7.5 g ae/ha alone): 10% | % visual injury Obs ([1]; herbicide 10 g ae/ha alone): 40% | % visual injury Obs ([11]; herbicide 7.5 g ae/ha alone): 68% | % visual injury Obs ([11]; herbicide 10 g ae/ha alone): 68% | % visual injury Obs ([2]; herbicide 7.5 g ae/ha alone): 73% | % visual injury Obs ([2]; herbicide 10 g ae/ha alone): 80% | % visual injury Obs ([12]; herbicide 7.5 g ae/ha alone): 83% | % visual injury Obs ([12]; herbicide 10 g ae/ha alone): 99% | % visual injury Obs ([3]; herbicide 7.5 g ae/ha alone): 45% | % visual injury Obs ([3]; herbicide 10 g ae/ha alone): 45% | % visual injury Obs ([6]; herbicide 7.5 g ae/ha alone): 85% | % visual injury Obs ([6]; herbicide 10 g ae/ha alone): 100% | % visual injury Obs (Kochia scoparia (kochia); herbicide 7.5 g ae/ha alone): 68% | % visual injury Obs (Kochia scoparia (kochia); herbicide 10 g ae/ha alone): 80% | % visual injury Obs ([7]; herbicide 7.5 g ae/ha alone): 10% | % visual injury Obs ([7]; herbicide 10 g ae/ha alone): 93% | % visual injury Obs ([8]; herbicide 7.5 g ae/ha alone): 68% | % visual injury Obs ([8]; herbicide 10 g ae/ha alone): 85% | % visual injury Obs ([9]; herbicide 7.5 g ae/ha alone): 70% | % visual injury Obs ([9]; herbicide 10 g ae/ha alone): 55% | % visual injury Obs ([10]; herbicide 7.5 g ae/ha alone): 85% | % visual injury Obs ([10]; herbicide 10 g ae/ha alone): 90%

O=P(O)(O)CCCl [Ethephon, reference compound]
Herbicidal Effects (% visual injury) VIOTR Obs [1, 18]: 0% | Herbicidal Effects (% visual injury) ABUTH Obs [11, 18]: 0% | Herbicidal Effects (% visual injury) POLCO Obs [2, 18]: 0% | Herbicidal Effects (% visual injury) EPHHL Obs [12, 18]: 0% | Herbicidal Effects (% visual injury) CIRAR Obs [3, 18]: 0% | Herbicidal Effects (% visual injury) AMARE Obs [5, 18]: 0% | Herbicidal Effects (% visual injury) HELAN Obs [6, 18]: 0% | Herbicidal Effects (% visual injury) KCHSC Obs (Kochia scoparia (kochia); [18]): 0% | Herbicidal Effects (% visual injury) SORVU Obs [13]: 0% | Herbicidal Effects (% visual injury) ZEAMX Obs (Zea mays (maize)): 0% | Herbicidal Effects (% visual injury) STEME Obs [7, 18]: 0% | Herbicidal Effects (% visual injury) BRSNN Obs [8, 18]: 0% | Herbicidal Effects (% visual injury) SETFA Obs [9, 18]: 0% | Herbicidal Effects (% visual injury) CHEAL Obs [10, 18]: 0% | Herbicidal Effects (% visual injury) CYPES Obs [14]: 0% | Herbicidal Effects (% visual injury) DIGSA Obs [15]: 0% | Herbicidal Effects (% visual injury) ECHCG Obs [16]: 0% | Herbicidal Effects (% visual injury) RUMOB Obs [17]: 0% | Herbicidal Effects (% visual injury) ORYSA Obs (rice (ORYSA)): 0%

O=C(O)Cc1c[nH]c2ccccc12 [IAA, indol-3-ylacetic acid, reference compound]
% visual injury Obs ([1]; PGR 140 g ai/ha alone): 0% | % visual injury Obs ([11]; PGR 140 g ai/ha alone): 0% | % visual injury Obs ([2]; PGR 140 g ai/ha alone): 0% | % visual injury Obs ([3]; PGR 140 g ai/ha alone): 0% | % visual injury Obs (Glycine max (soybean); PGR 140 g ai/ha alone): 0% | % visual injury Obs ([4]; PGR 140 g ai/ha alone): 0% | % visual injury Obs ([5]; PGR 140 g ai/ha alone): 0% | % visual injury Obs ([6]; PGR 140 g ai/ha alone): 0% | % visual injury Obs (Kochia scoparia (kochia); PGR 140 g ai/ha alone): 0% | % visual injury Obs ([7]; PGR 140 g ai/ha alone): 5% | % visual injury Obs ([8]; PGR 140 g ai/ha alone): 0% | % visual injury Obs ([9]; PGR 140 g ai/ha alone): 0%

O=C(O)CCCc1c[nH]c2ccccc12 [IBA, indol-3-butyric acid, reference compound]
% visual injury Obs ([1]; PGR 140 g ai/ha alone): 3% | % visual injury Obs ([11]; PGR 140 g ai/ha alone): 0% | % visual injury Obs ([2]; PGR 140 g ai/ha alone): 0% | % visual injury Obs ([3]; PGR 140 g ai/ha alone): 0% | % visual injury Obs (Glycine max (soybean); PGR 140 g ai/ha alone): 0% | % visual injury Obs ([4]; PGR 140 g ai/ha alone): 0% | % visual injury Obs ([5]; PGR 140 g ai/ha alone): 0% | % visual injury Obs ([6]; PGR 140 g ai/ha alone): 0% | % visual injury Obs (Kochia scoparia (kochia); PGR 140 g ai/ha alone): 0% | % visual injury Obs ([7]; PGR 140 g ai/ha alone): 8% | % visual injury Obs ([8]; PGR 140 g ai/ha alone): 0% | % visual injury Obs ([9]; PGR 140 g ai/ha alone): 5%
